{
  "source": "patent US4892947A",
  "about": "“3(2H)Pyridazinone, process for its preparation and anti-allergic agent containing it” (Nissan Chemical Industries Ltd., priority 1985, dated 1990)",
  "key": {"[1]": {"tested_on": "LTD4", "test": "LTD4 antagonism in isolated guinea-pig trachea (method (i))", "format": "cell-based", "conditions": "Cavia porcellus, 5 min; for inhibition at 10 µg/mL: 10^-5 g/ml test compound, 5 min prior to LTD4 (2×10^-8 g/ml); for inhibition at 1 µg/mL: 10^-6 g/ml test compound, Test method (i) (asterisk in Table 4), 5 min prior to LTD4", "description": "(§1) (i) LTC4 and LTD4 antagonisms in guinea-pig trachea\n(§2) Antagonisms for LTC4 and LTD4 were determined in isolated guinea-pig trachea prepared as spiral strip. Tracheal preparations were suspended under 1 g tension in 10 ml organ baths and they were incubated for 1 hr prior to use. Contractile responses to LTC4 (2×10^-8 g/ml) and LTD4 (2×10^-8 g/ml) were obtained after the maximal response to histamine (10^-4 M). Test compounds dissolved in 100% dimethyl sulfoxide were added to the organ baths (final concentration of 10^-5 g/ml or 10^-6 g/ml) 5 min prior to LTC4 and LTD4 addition, and then contractile responses to LTC4 and LTD4 were compared with those of control which was obtained from a paired trachea in the absence of test compounds. LTC4 - and LTD4 -induced contractions were expressed as a percentage of the maximal response to histamine. The antagonism was determined as follows:\n(§3) Antagonism (%)=(1.0-% contraction in test/% contraction in control)×100"}, "[2]": {"tested_on": "LTC4", "test": "LTC4 antagonism in isolated guinea-pig trachea (method (i))", "format": "cell-based", "conditions": "Cavia porcellus, 5 min; 10^-5 g/ml test compound, 5 min prior to LTC4 (2×10^-8 g/ml)", "description": "as §1, §2, §3"}, "[3]": {"tested_on": "antigen-induced anaphylactic bronchoconstriction in passively sensitized guinea-pig", "test": "Anaphylactic bronchoconstriction in passively sensitized guinea-pig, i.v. test", "format": "in vivo", "conditions": "i.v. 2 mg/kg, 1 min prior to EA challenge (10 mg/kg)", "description": "(§4) (iii) Effect on anaphylactic bronchoconstriction in passively sensitized guinea-pig\nMale guinea-pigs (350-450 g) were passively sensitized with intravenous (i.v.) injection of 0.125 ml rabbit anti-EA (egg albumin) serum (Cappel Laboratories) 1 to 2 days preceding the experiment. […] Sensitized guinea-pigs were anaesthetized with intraperitoneal injection of urethane (1.5 g/kg). The right jugular vein was cannulated for the administration of the all agents and trachea was cannulated to record total pulmonary resistance. Guinea-pigs were artificially ventilated by a small animal respirator (Shinano, Model SN-480-7) set at a stroke volume of 4.5 ml and a rate of 50 breaths per min. […] The increase in air overflow volume was expresssed as a percentage of the maximum bronchoconstriction obtained by clamping off the trachea. Following surgical preparation, the animals were pretreated with indomethacin (0.2 mg/kg, 10 min), pyrilamine (2 mg/kg, 6 min) and propanolol (0.1 mg/kg, 5 min) prior to the EA challenge (0.1 or 10 mg/kg). All test compounds were administered intraveneously or orally before the EA challenge. Inhibition (%) of bronchoconstriction was determined as follows: Inhibition (%)=(1.0%-maximum bronchoconstriction in test/% maximum bronchoconstriction in control)×100. […] The number of test animals was 4 in the i.v. test and 6 in the p.o. test.\n(a) The i.v. test: A test compound (2 mg/kg) was suspended or dissolved in 3% Tween 80 and intraveneously administered 1 min prior to the EA challlenge (10 mg/kg)."}, "[4]": {"tested_on": "ddY strain male mice", "test": "Acute toxicity test, intraperitoneal (Test method-(1))", "format": "in vivo", "conditions": "7 days", "description": "The lethal ratio was determined in ddY strain male mice (4 weeks old) at 7 days after the intraperitoneal injection of test compounds."}, "[5]": {"tested_on": "ddY strain male mice", "test": "Acute toxicity test, oral (Test method-(2))", "format": "in vivo", "conditions": "7 days", "description": "The lethal ratio was determined in ddY strain male mice (4 weeks old) at […] 7 days after the oral administration of test compounds."}, "[6]": {"tested_on": "antigen-induced anaphylactic bronchoconstriction in passively sensitized guinea-pig", "test": "Anaphylactic bronchoconstriction in passively sensitized guinea-pig, p.o. test", "format": "in vivo", "conditions": "for Inhibition (%) of bronchoconstriction: 2 hours prior to EA challenge (0.2 mg/kg)", "description": "as §4\nMale guinea-pigs (350-450 g) were passively sensitized with intravenous (i.v.) injection of 0.125 ml rabbit anti-EA (egg albumin) serum (Cappel Laboratories) 1 to 2 days preceding the experiment. Antigen-induced anaphylactic bronchoconstrictions were measured by modified method of Konzett and Rossler (Arch. Exp. Path. Pharmak., 195, 71, 1940). Sensitized guinea-pigs were anaesthetized with intraperitoneal injection of urethane (1.5 g/kg). The right jugular vein was cannulated for the administration of the all agents and trachea was cannulated to record total pulmonary resistance. Guinea-pigs were artificially ventilated by a small animal respirator (Shinano, Model SN-480-7) set at a stroke volume of 4.5 ml and a rate of 50 breaths per min. The change in pulmonary resistance was measured with a pressure transducer (Nihon Kohden, Model TP-602T) connected to a T-tube on the tracheal cannula. The increase in air overflow volume was expresssed as a percentage of the maximum bronchoconstriction obtained by clamping off the trachea. Following surgical preparation, the animals were pretreated with indomethacin (0.2 mg/kg, 10 min), pyrilamine (2 mg/kg, 6 min) and propanolol (0.1 mg/kg, 5 min) prior to the EA challenge (0.1 or 10 mg/kg). All test compounds were administered intraveneously or orally before the EA challenge. Inhibition (%) of bronchoconstriction was determined as follows: Inhibition (%)=(1.0%-maximum bronchoconstriction in test/% maximum bronchoconstriction in control)×100. The maximum bronchoconstriction was btained within 30 min after the EA challenge. The number of test animals was 4 in the i.v. test and 6 in the p.o. test.\n(b) The p.o. test: A test compound was suspended in 5% gum arabic and orally administered 2 hours prior to the EA challenge (0.2 mg/kg). The reaction of the control was 62±6%."}, "[7]": {"tested_on": "LTD4", "test": "LTD4 antagonism in isolated guinea-pig trachea with indomethacin (method (ii))", "format": "cell-based", "conditions": "Cavia porcellus, 0.5 h, 10^-6 g/ml test compound, 30 min prior to LTD4", "description": "(ii) LTD4 antagonism in guinea-pig trachea\nAntagonism for LTD4 was determined in isolated guinea-pig trachea prepared as spiral strip. Tracheal preparations were suspended under 1 g tension in 10 ml organ baths containing […] of indomethacin and they were incubated for 1 hr prior to use. Contractile responses to LTD4 (2×10^-8 g/ml) were obtained after the maximal respone to hitamine (10^-4 M). Test compounds dissolved in 100% dimethyl sulfoxide were added to the organ baths (final concentration of 10^-6 g/ml) 30 min prior to LTD4 addition, and then contractile responses to LTD4 were compared with those of control which was obtained from a paired trachea in the absence of test compounds. LTD4 -induced contractions were expressed as a percentage of the maximal response to histamine. The antagonism was determined as follows:\nas §3"}},
  "data": [
    {"smiles": "CCOc1cc(CNc2cnn(C)c(=O)c2Cl)ccc1OC", "note": "[Compound No. 13]", "values": [
      {"measurement": "inhibition at 10 µg/mL", "setting": "[1]", "result": 79, "unit": "%"},
      {"measurement": "inhibition at 10 µg/mL", "setting": "[2]", "result": 81, "unit": "%"},
      {"measurement": "Inhibition (%) of bronchoconstriction", "setting": "[3]", "result": 19, "unit": "%"},
      {"measurement": "Lethal ratio (Death number/Experimental number)", "setting": "[4]; i.p. 200 mg/kg", "result": "0/2"},
      {"measurement": "Lethal ratio (Death number/Experimental number)", "setting": "[4]; i.p. 400 mg/kg", "result": "0/1"}
    ]},
    {"smiles": "CCCCOc1cc(CNc2cn[nH]c(=O)c2Br)ccc1OC", "note": "[Compound No. 38]", "values": [
      {"measurement": "inhibition at 1 µg/mL", "setting": "[1]", "result": 80, "unit": "%"},
      {"measurement": "Lethal ratio (Death number/Experimental number)", "setting": "[5]; oral 400 mg/kg", "result": "0/3"},
      {"measurement": "Lethal ratio (Death number/Experimental number)", "setting": "[5]; oral 800 mg/kg", "result": "0/3"},
      {"measurement": "Inhibition (%) of bronchoconstriction", "setting": "[6]; p.o. 30 mg/kg", "result": 53, "unit": "%"}
    ]},
    {"smiles": "COc1ccc(CNc2cnn(CC(=O)O)c(=O)c2Cl)cc1OC", "note": "[Compound No. 10, 4-Chloro-5-(3,4-dimethoxybenzylamino)-2-(carboxymethyl)-3(2H)pyridazinone]", "values": [
      {"measurement": "inhibition at 10 µg/mL", "setting": "[1]", "result": 20, "unit": "%"},
      {"measurement": "inhibition at 10 µg/mL", "setting": "[2]", "result": 29, "unit": "%"}
    ]},
    {"smiles": "CCCc1c(OCC(O)COc2ccc3c(=O)cc(C(=O)O)oc3c2CCC)ccc(C(C)=O)c1O", "note": "(stereo not shown) [FPL-55712, reference compound]", "values": [
      {"measurement": "inhibition at 10 µg/mL", "setting": "[1]", "result": 97, "unit": "%"},
      {"measurement": "inhibition at 1 µg/mL", "setting": "[1]", "result": 76, "unit": "%"},
      {"measurement": "inhibition at 1 µg/mL", "setting": "[7]", "result": 94, "unit": "%"},
      {"measurement": "inhibition at 10 µg/mL", "setting": "[2]", "result": 100, "unit": "%"},
      {"measurement": "Inhibition (%) of bronchoconstriction", "setting": "[3]", "result": 27, "unit": "%"},
      {"measurement": "Inhibition of bronchoconstriction (in words)", "setting": "[6]; p.o. 100 mg/kg", "result": "No substantial inhibition"}
    ]},
    {"smiles": "CCCOc1cc(CNc2cn[nH]c(=O)c2Cl)ccc1OC", "note": "[Compound No. 32]", "values": [
      {"measurement": "inhibition at 10 µg/mL", "setting": "[1]", "result": 100, "unit": "%"},
      {"measurement": "inhibition at 1 µg/mL", "setting": "[1]", "result": 64, "unit": "%"},
      {"measurement": "Inhibition (%) of bronchoconstriction", "setting": "[6]; p.o. 50 mg/kg", "result": 71, "unit": "%"}
    ]},
    {"smiles": "COc1cccc(CNc2cnn(C3CCCC3)c(=O)c2Cl)c1", "note": "[Compound No. 3, 4-Chloro-5-(3-methoxybenzylamino)-2-cyclopentyl-3(2H)pyridazinone]", "values": [
      {"measurement": "inhibition at 10 µg/mL", "setting": "[1]", "result": 82, "unit": "%"},
      {"measurement": "inhibition at 10 µg/mL", "setting": "[2]", "result": 97, "unit": "%"},
      {"measurement": "Inhibition (%) of bronchoconstriction", "setting": "[3]", "result": 31, "unit": "%"},
      {"measurement": "Lethal ratio (Death number/Experimental number)", "setting": "[4]; i.p. 200 mg/kg", "result": "0/2"},
      {"measurement": "Lethal ratio (Death number/Experimental number)", "setting": "[4]; i.p. 400 mg/kg", "result": "0/1"}
    ]}
  ]
}
